Test results published in US20260256667A1, “ORAL CARE COMPOSITION FOR INCREASING SELF CONFIDENCE” (GIVAUDAN SA, priority 2023, published 2026).

What was measured:
[1] = Self-confidence, 9-item subscale of the modified CSAI-2 questionnaire, after teeth brushing, home use test; type: in vivo, human
Experimental: Individual's thoughts and feelings in relation to their self-confidence as per their perceived oral health (such as breath) were measured using a 9-item subscale of the modified Competitive State Anxiety Questionnaire (CSAI-2).
The nine items in the Self-confidence scale include five that describe positive expectations (“I feel self-confident”, “I am confident I can meet the challenge”, “I'm confident about performing well”, “I'm confident because I mentally picture myself reaching my goal”, and “I'm confident about coming through under pressure”), and four that describe a generalised feeling of calmness (“I feel calm”, “I feel comfortable”, “I feel secure”, “I feel mentally relaxed”). All items were rated on a 4-point scale anchored by 1 (“Not at all”) and 4 (“Very much so”).
(§1) Twenty-six participants were pre-screened to ensure that they had no underlying dental problems.
(§2) A repeated measures design, with a randomised repeated trial per product was used. Three toothpastes were prepared with: • Control: peppermint flavour • EC180—150 ppm: peppermint flavour+150 ppm EC180 (concentration in toothpaste) • EC180—250 ppm: peppermint flavour+250 ppm EC180 (concentration in toothpaste)
(§3) Participants were given duplicate tubes of each toothpaste (6 tubes in total). All products were assigned different codes and presented in white tubes to prevent colour as a confounding factor.
(§4) The participants did the test each morning in their homes as per their usual teeth cleaning time (between 7:00 am and 10:00 am) and were asked to refrain from using other oral practices apart from brushing with test product. Testing was done with one product a day with a one-day separation left before testing the next product. A questionnaire was sent to them via an online link for them to complete before teeth cleaning and after teeth cleaning. Responses before teeth cleaning were recorded as their baseline scores.
The questionnaires on breath-freshness and self-confidence was set up for participants to respond to at the five time-points: (i) pre-brush baseline (ii) 0 minutes immediately post-bush (iii) 30 minutes post-brush (iv) 60 minutes post-brush. A total of 47 datasets per product was input for analysis and 5 incompletes were removed.
Self-confidence was measured with the 9-Item subscale of the Modified Competitive State Inventory-2 (CSAI-2). The questionnaire uses a 4-point scale as follows:
1—not at all; 2—somewhat; 3—moderately so; 4—very much so.
(§5) To evaluate a change effect from the baseline (pre-brush) to the different times post-brush, a mean difference between each time-point to the baseline mean score was calculated to obtain delta values.

[2] = Breath-freshness self-assessment (three questions) after teeth brushing, home use test; type: in vivo, human
Experimental: as §1, §2, §3, §4
The data for this test was collected through an online questionnaire set up via SurveyMonkey Audience. The questionnaires on breath-freshness and self-confidence was set up for participants to respond to at the five time-points: (i) pre-brush baseline (ii) 0 minutes immediately post-bush (iii) 30 minutes post-brush (iv) 60 minutes post-brush. A total of 47 datasets per product was input for analysis and 5 incompletes were removed.
Breath freshness was self-evaluated with a set of three questions asking (i) whole mouth clean feel; (ii) natural freshness in mouth; and (lii) cooling sensation in the mouth. […] Breath assessment recorded before teeth brushing was categorized as the baseline measure.
as §5

[3] = employed in oral care compositions such as mouthwashes or toothpastes; cited from earlier work
[4] = 60 minutes from brushing with a toothpaste containing EC180

Question: For CC(C)[C@@H]1CC[C@@H](C)C[C@H]1C(=O)Nc1ccc(CC#N)cc1 [EC180, (1R,2S,5R)—N-(4-cyanomethylphenyl)-p-menthane carboxamide], which “level of self-confidence vs flavoured tooth paste alone” value ([1]; 10 minutes after brushing, in a flavoured tooth-paste, FIG. 2) is on record?
Answer: The value was “significantly increased”.

Question: What about the “change of level of self-confidence compared to immediately after brushing (0 min)” value ([1]; 10 minutes after brushing, toothpaste comprising EC180) of the same molecule?
Answer: Its value is “noticeable increase”.

Question: What about the “self-confidence compared to the level attained immediately after brushing” value [1, 4] of the same molecule?
Answer: Its value is “more than 80%”.

Question: What about the “period of time the level of self-confidence remained elevated after teeth brushing” value ([1]; in a flavoured tooth-paste, effect still observed 60 min after brushing) of the same molecule?
Answer: The value was “up to 30 min”.

Question: And the “level of breath freshness vs flavoured tooth paste alone” value ([2]; 10 minutes after brushing, in a flavoured tooth-paste, FIG. 1)?
Answer: The value was “same level of breath freshness”.

Question: What about the “breath freshness relative to the initial level” value [2, 4] of the same molecule?
Answer: The value was “about 60%”.

Question: And the “change of breath freshness compared to immediately after brushing (0 min)” value ([2]; up to 10 minutes after brushing, toothpaste comprising EC180)?
Answer: Its value is “only minimally increases”.

Question: And the cooling effect [3]?
Answer: The cooling effect was “strong and long-lasting cooling effect”.
